Measured values taken from patent publication US5668001A, “3-hydroxy-3-methyl-glutaryl-coa synthase preparation with improved stability” (MCW Research Foundation, Inc., priority 1994, dated 1997).
Read-outs that look alike come from different tables or passages of the source.

What was measured:
[1] = tested on: native avian liver HMG-CoA synthase (liver enzyme); settings: read-out: Km AcCoA (Hydrolase Rxn.), absence of acetoacetyl-CoA; cited from earlier work
[2] = tested on: native avian liver HMG-CoA synthase (liver enzyme); settings: read-out: Km AcCoA (Overall Rxn.), apparent value, in presence of 20 μM acetoacetylCoA; cited from earlier work
[3] = target: T1, recombinant avian cytosolic HMG-CoA synthase (wild type, alanine replacing proline at residue 2; SEQ ID NO:2) expressed in E. coli (Gallus gallus, UniProt P23228, P2A); assay: R.CoA binding by EPR (Scatchard plot); parameters: species or system avian (chicken); settings: 50 mM sodium phosphate pH 7.0, ambient temperature
T1 construct: Isolation of full length cDNA encoding avian HMG-CoA synthase from a λgt11 library has been reported; made in house; host or cells: E. coli BL21(DE3), plasmid pACS (pET-3d)
T1 sequence (P23228 2-522 P2A limits assumed): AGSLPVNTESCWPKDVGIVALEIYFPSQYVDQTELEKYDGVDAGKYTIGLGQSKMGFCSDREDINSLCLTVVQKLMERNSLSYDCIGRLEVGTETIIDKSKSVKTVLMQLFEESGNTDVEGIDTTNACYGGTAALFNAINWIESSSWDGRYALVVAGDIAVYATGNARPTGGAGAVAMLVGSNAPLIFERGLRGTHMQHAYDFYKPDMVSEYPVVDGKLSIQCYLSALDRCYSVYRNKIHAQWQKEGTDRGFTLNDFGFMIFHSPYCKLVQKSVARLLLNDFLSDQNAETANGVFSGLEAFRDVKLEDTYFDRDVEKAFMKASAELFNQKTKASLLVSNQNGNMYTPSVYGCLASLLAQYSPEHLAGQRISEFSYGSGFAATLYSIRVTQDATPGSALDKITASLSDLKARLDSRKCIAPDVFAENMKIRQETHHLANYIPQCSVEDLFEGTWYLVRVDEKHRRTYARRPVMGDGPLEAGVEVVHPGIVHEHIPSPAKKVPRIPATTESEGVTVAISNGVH
Description: Measurement of R.CoA Binding by EPR. Conventional X-band EPR spectra were recorded using a Varian Century-Line 9-GHz spectrometer. The samples contained variable concentrations of HMG-CoA synthase sites (0-930 μM) in 50 mM sodium phosphate buffer, pH 7.0, and 50 or 150 μM R.CoA. R.CoA bound to HMG-CoA synthase was calculated by comparing the amplitudes of high, center, or low-field lines of sample spectra to the corresponding lines observed with a solution containing an equal concentration of R.CoA in buffer. The data were analyzed (Miziorko et al., (1979) Biochemistry 18, 399-403) by Scatchard plot using linear regression analysis. The spectra were recorded at ambient temperature with a modulation amplitude of 1 G, modulation frequency of 100 KHz and microwave power 5 mW. Field sweep was 100 G and time constant was 0.5 sec. The EPR spectrum of bound R.CoA was obtained at 5 G modulation amplitude and variable gain. Rotational correlation time of the bound spin label was determined using a spectral simulation algorithm (Freed, (1976) Spin Labeling: Theory and Applications (L. Berliner, ed.) 1, 53-132; Schneider, et al. (1989) Biological Magnetic Resonance 8, 1-76).

[4] = substrate: CC(=O)SCCNC(=O)CCNC(=O)[C@H](O)C(C)(C)COP(=O)(O)OP(=O)(O)OC[C@H]1O[C@@H](n2cnc3c(N)ncnc32)[C@H](O)[C@@H]1OP(=O)(O)O; assay: purified protein, by the assay type; settings: other: recombinant enzyme

CC(=O)SCCNC(=O)CCNC(=O)[C@H](O)C(C)(C)COP(=O)(O)OP(=O)(O)OC[C@H]1O[C@@H](n2cnc3c(N)ncnc32)[C@H](O)[C@@H]1OP(=O)(O)O [AcCoA, acetyl-CoA]
Km [1]: 14 µM | Km [2]: 300 µM

CC(C)(COP(=O)(O)OP(=O)(O)OC[C@H]1O[C@@H](n2cnc3c(N)ncnc32)[C@H](O)[C@@H]1OP(=O)(O)O)[C@@H](O)C(=O)NCCC(=O)NCCSC(=O)C1CC(C)(C)N([O])C1(C)C (some centres unmarked) [R.CoA]
Kd [3]: 102 µM

B1: recombinant avian cytosolic HMG-CoA synthase (wild type, alanine replacing proline at residue 2; SEQ ID NO:2) expressed in E. coli (Gallus gallus; P2A) (protein)
chain: T1 sequence (P23228 2-522 P2A limits assumed)
Km ([4]; absence of acetoacetyl-CoA, pH 8.0, 30° C., pH 8.0): 12 µM | Km ([4]; apparent value, in presence of 20 μM acetoacetylCoA, 30° C., pH 8.2, pH 8.2): 270 µM
